“Also recorded” adds a separate entry of the source.
Tests used:
Type in all cases: in vivo
[1] = tested on: rat middle cerebral artery distal obstruction cerebral ischemia model; test: dMCAO cerebral ischemia: TUNEL detection of brain cortex apoptosis
Experimental: Using rat middle cerebral artery distal obstruction cerebral ischemia model. (1) according to rat weight, 10% chloral hydrate (3 ml/kg) was peritoneally injected to anaesthetize. (2) the rat lie on right side and fixed, 1 cm skin incision was cut at connection of inner canthus with external canal, fascia was isolated, muscle tissue, the skull was exposed; (3) a small amount of normal saline was sucked with cotton ball to wipe the skull to ac clear view; (4) fascia was isolated under operating microscope, and the skull was exposed, a hole with diameter of 2 mm circular was drilled at a sute 1/3 of spine; (5) the excess bone debris was washed by a small amount of normal saline, the meninge was push aside, and the middle cerebral artery MCA was exposed; (6) the rat lie in supine position and fixed, an incision was made along middle of throat, and arteria carotis communis CCA on both sides were isolate, pass through with a surgical suture, not ligated temporarily; (7) the MCA was found under operating microscope, burned by a monopolar coagulator, then wash and colled with normal saline; (8) immediately after coagulation, the arteria carotis communis on both sides was ligated, and blocked for 60 min; (9) the wound on head was stitched, after 1 hour the arteria carotis communis on both sides was […], and the skin was stitched, thus the modeling was complete. […]

[2] = tested on: mouse kidney ischemia reperfusion; test: kidney ischemia reperfusion: electron microscope observation of renal tubular epithelial cells
Experimental: Male C57BL/6 mice 20-25 g, after one week of adaptive feeding to the animals, were randomly divided into eight groups: sham-operation group, IR group, HEA 5 mg/kg group, HEA 7 mg/kg group, HEA 10 mg/kg group, DPCPX (1 mg/kg) group, DPCPX (1 mg/kg)+HEA (5 mg/kg) group and DPCPX (1 mg/kg)+HEA (7.5 mg/kg) group. The mouse was weighed before operation, then peritoneally injected with pentobarbital sodium 50 mg/kg to anaesthetize the mouse, abdomen was opened by ventromedial incision, blunt dissection and the kidney pedicle was sufficiently exposed, renal ischemia was induced by clapping two side kidney pedicle with non-invasive bulldog clamp, the color of kidney change from bright red to purple black immediately, determination method of success of the experiment model can refer to the methods in literature 7 and 8. At time of 30 min of ischemia the bulldog clamp was loosened, the perfuse was restored, the color of kidney changed gradually from dark red to bright red, showing re perfusion was successful. The wound was stitched. The animals were freely fed water and food. In the sham-operation group, the mice only received operation of abdomen open, kidney pedicle and abdomen suture. The kidney IR mode were made for the mice in the remaining groups. In each drug group, before 15 minute of ischemia, the drug with corresponding concentration was speritoneally injected, in drug combination group, 15 minutes before ischemia, the drugs were given simultaneously. The section was observed using Transmission Electron Microscope ([…], from Hitachi Co. limited). The observation was conducted in Electron Microscoper Room of Wenzhou Medical University.

[3] = tested on: mouse kidney ischemia reperfusion; test: kidney ischemia reperfusion: kidney function test (Scr, BUN); settings: for serum BUN level / serum Scr level: 24 h after ischemia reperfusion, vs IR group, ip pretreatment, HEA 5, 7.5, 10 mg/kg, DPCPX 1 mg/kg, DPCPX 1 mg/kg+HEA 7.5 mg/kg
Experimental: Male C57BL/6 mice 20-25 g, after one week of adaptive feeding to the animals, were randomly divided into eight groups: sham-operation group, IR group, HEA 5 mg/kg group, HEA 7 mg/kg group, HEA 10 mg/kg group, DPCPX (1 mg/kg) group, DPCPX (1 mg/kg)+HEA (5 mg/kg) group and DPCPX (1 mg/kg)+HEA (7.5 mg/kg) group. The mouse was weighed before operation, then peritoneally injected with pentobarbital sodium 50 mg/kg to anaesthetize the mouse, abdomen was opened by ventromedial incision, blunt dissection and the kidney pedicle was sufficiently exposed, renal ischemia was induced by clapping two side kidney pedicle with non-invasive bulldog clamp, the color of kidney change from bright red to purple black immediately, determination method of success of the experiment model can refer to the methods in literature 7 and 8. At time of 30 min of ischemia the bulldog clamp was loosened, the perfuse was restored, the color of kidney changed gradually from dark red to bright red, showing re perfusion was successful. The wound was stitched. The animals were freely fed water and food. In the sham-operation group, the mice only received operation of abdomen open, kidney pedicle and abdomen suture. The kidney IR mode were made for the mice in the remaining groups. In each drug group, before 15 minute of ischemia, the drug with corresponding concentration was speritoneally injected, in drug combination group, 15 minutes before ischemia, the drugs were given simultaneously. At 24 hours after Reperfussion, the mouse was again anaesthetized, obtaining the venous blood. Using full-automatic biochemical analysis systems (Dimension Xpand plus, from Siemens AG), the Scr (serum creatinine) and BUN (blood urea nitrogen) levels were detected respectively by chrysolepic acid rate method and enzymatic rate.

Row | SMILES | apoptosis rate of cerebral cortex infarction ischemic penumbra (TUNEL) ([1]; dMCAO rat, HEA 7.5 mg/kg ip, vs model group) | renal tubular epithelial cell ultrastructure (electron microscope) ([2]; HEA 5 mg/kg group) | renal tubular epithelial cell ultrastructure (electron microscope) ([2]; HEA 7.5 mg/kg group) | renal tubular epithelial cell ultrastructure (electron microscope) ([2]; HEA 10 mg/kg group) | serum BUN level [3] | serum Scr level [3] | protective effect to mouse kidney ischemia reperfusion impairment ([3]; by serum Scr and BUN level and kidney histopathological change) | effect of DPCPX on brain protective effect of HEA (TUNEL) ([1]; DPCPX 1 mg/kg ip + HEA 7.5 mg/kg ip) | renal tubular epithelial cell ultrastructure (electron microscope) ([2]; DPCPX 1 mg/kg alone or DPCPX 1 mg/kg+HEA 5 or 7.5 mg/kg before ischemia)
1 | OCCNc1ncnc2c1ncn2[C@@H]1O[C@H](CO)[C@@H](O)[C@H]1O [HEA, N(6)-(2-hydroxyethyl)-adenosine] | significantly reduced; also recorded: significantly reduce the apoptosis rate of rat cerebral cortex infarction ischemic penumbra | the entirety is improved compared with ischemia reperfusion group | most of the mitochondria are normal | mitochondria protection is more clear than the IR group | significantly reduce | significantly reduce | has protective effect to mouse kidney ischemia reperfusion impairment |  | 
2 | CCCn1c(=O)c2[nH]c(C3CCCC3)nc2n(CCC)c1=O [DPCPX, reference compound] |  |  |  |  | significantly increase | significantly increase |  | blocking brain protective effect of the HAE | essentially no mitochondria with complete structure
